{"source": "patent US6875451B2", "about": "“Compositions and methods for the treatment of primary and metastatic neoplastic diseases using arsenic compounds” (PolaRx Biopharmaceuticals Inc., priority 1997, dated 2005)", "type_in_all_cases": "cell-based", "key": {"HL-60(TB)": {"system": "HL-60(TB)", "settings": "2 days"}, "CAKI-1 [1]": {"system": "CAKI-1", "assay": "SRB growth assay, 2 days exposure, renal cancer", "method": "(§1) Arsenic trioxide (1 mg/ml, 10 mg/ampoule, manufactured by Taylor Pharmaceuticals, Decatur, Ill.) was tested at five concentrations each at 10-fold dilutions, i.e., 10^−5, 10^−6, 10^−7, 10^−8 and 10^−9 μg/ml.\n(§2) The in vitro tests were performed by incubating the test cells in the presence of the indicated concentration of arsenic trioxide under standard culture conditions for a designated period of time, which is followed by a sulforhodamine B (SRB) protein assay to estimate cell viability or growth. The cell lines are organized into subpanels according to the origin of the cell lines, e.g., leukemia, breast cancer, etc. A description of the cell lines and method of testing is described in Monk et al. (1997, Anticancer Drug Des. 12:533-41) and Weinstein et al., (1997, Science 275:343-9), which are incorporated herein in their entirety.\n(§3) The measurement of an effect is expressed in Percentage Growth (PG). The measured effect of the compound on a cell line is calculated according to one or the other of the following two expressions: If (Mean ODtest−Mean ODzero)≧0. then PG=100×(Mean ODtest−Mean ODzero)/(Mean ODctrl−Mean ODzero) If (Mean ODtest−Mean ODzero)<0. then PG=100×(Mean ODtest−Mean ODzero)/(Mean ODzero where: • Mean ODzero=the average of optical density measurements of SRB-derived color just before exposure of cells to the test compounds; • Mean ODtest=the average of optical density measurements of SRB-derived color after exposure of cells to the test compound for a designated period of time; and • Mean ODctrl=the average of optical density measurements of SRB-derived color after with no exposure of cells to the test compound for a designated period of time\n(§4) The first two columns describe the subpanel (e.g., leukemia) and cell line (e.g., CCRF-CEM) involved. The next two columns list the Mean ODzero and Mean ODctrl; the next five columns list the Mean ODtest for each of five different concentrations. Each concentration is expressed as the log10 (molar or μg/ml). The next five columns list the calculated PGs for each concentration. The response parameters GI50, TGI and LC50 are interpolated values representing the concentrations at which the PG is +50, 0, and −50, respectively. Sometimes these response parameters cannot be obtained by interpolation. If, for instance, all of the PGs in a given row exceed +50, then none of the three parameters can be obtained by interpolation. In such a case, the value given for each response parameter is the highest concentration tested and is preceded by a “>” sign. This practice is extended similarly to the other possible situations where a response parameter cannot be obtained by interpolation.\n(§5) In the first set, the cells from 56 different cancer cell lines were exposed to five concentrations of arsenic trioxide continuously for two days prior to performing the SRB assay. In the second set, the cells from 50 different cell lines (a subset of the first 56 cell lines, plus the renal cancer cell line 786-0) were exposed continuously for six days prior to the SRB assay."}, "A498 [2]": {"system": "A498", "assay": "SRB growth assay, 2 days exposure, renal cancer", "method": "as §1, §2, §3, §4, §5"}, "SN12C": {"system": "SN12C", "assay": "SRB growth assay, 2 days exposure, renal cancer", "method": "as §1, §2, §3, §4, §5"}, "TX-10": {"system": "TX-10", "assay": "SRB growth assay, 2 days exposure, renal cancer", "method": "as §1, §2, §3, §4, §5"}, "RXE 393": {"system": "RXE 393", "assay": "SRB growth assay, 2 days exposure, renal cancer", "method": "as §1, §2, §3, §4, §5"}, "UO-31": {"system": "UO-31", "assay": "SRB growth assay, 2 days exposure, renal cancer", "method": "as §1, §2, §3, §4, §5"}, "CAKI-1 [3]": {"system": "CAKI-1", "assay": "SRB growth assay, 6 days exposure, renal cancer", "settings": "CAKI-1, 6 days", "method": "as §1, §2, §3, §4, §5"}, "A498 [4]": {"system": "A498", "assay": "SRB growth assay, 6 days exposure, renal cancer", "settings": "A498, 6 days", "method": "as §1, §2, §3, §4, §5"}, "TK-10": {"system": "TK-10", "assay": "SRB growth assay, 6 days exposure, renal cancer", "settings": "TK-10, 6 days", "method": "as §1, §2, §3, §4, §5"}}, "note": "Read-outs that look alike come from different tables or passages of the source."}
{"substance": "arsenic trioxide", "values": [{"measurement": "TGI", "setting": "HL-60(TB)", "value": 0.0103, "unit": "ng/mL"}, {"measurement": "Percent Growth", "setting": "HL-60(TB); log10 conc −4.9", "value": "−9", "unit": "%"}, {"measurement": "Percent Growth", "setting": "HL-60(TB); log10 conc −5.9", "value": 90, "unit": "%"}, {"measurement": "Percent Growth", "setting": "HL-60(TB); log10 conc −6.9", "value": 102, "unit": "%"}, {"measurement": "Percent Growth", "setting": "HL-60(TB); log10 conc −7.9", "value": 92, "unit": "%"}, {"measurement": "Percent Growth", "setting": "HL-60(TB); log10 conc −8.9", "value": 101, "unit": "%"}, {"measurement": "TGI", "setting": "CAKI-1 [1]", "value": 0.00913, "unit": "ng/mL"}, {"measurement": "Percent Growth", "setting": "CAKI-1 [1]; log10 conc −4.9", "value": "−13", "unit": "%"}, {"measurement": "Percent Growth", "setting": "CAKI-1 [1]; log10 conc −5.9", "value": 78, "unit": "%"}, {"measurement": "Percent Growth", "setting": "CAKI-1 [1]; log10 conc −6.9", "value": 128, "unit": "%"}, {"measurement": "Percent Growth", "setting": "CAKI-1 [1]; log10 conc −7.9", "value": 103, "unit": "%"}, {"measurement": "Percent Growth", "setting": "CAKI-1 [1]; log10 conc −8.9", "value": 120, "unit": "%"}, {"measurement": "TGI", "setting": "A498 [2]", "value": 0.00971, "unit": "ng/mL"}, {"measurement": "Percent Growth", "setting": "A498 [2]; log10 conc −4.9", "value": "−11", "unit": "%"}, {"measurement": "Percent Growth", "setting": "A498 [2]; log10 conc −5.9", "value": 84, "unit": "%"}, {"measurement": "Percent Growth", "setting": "A498 [2]; log10 conc −6.9", "value": 89, "unit": "%"}, {"measurement": "Percent Growth", "setting": "A498 [2]; log10 conc −7.9", "value": 93, "unit": "%"}, {"measurement": "Percent Growth", "setting": "A498 [2]; log10 conc −8.9", "value": 105, "unit": "%"}, {"measurement": "TGI", "setting": "SN12C", "value": 0.00696, "unit": "ng/mL"}, {"measurement": "Percent Growth", "setting": "SN12C; log10 conc −4.9", "value": "−28", "unit": "%"}, {"measurement": "Percent Growth", "setting": "SN12C; log10 conc −5.9", "value": 81, "unit": "%"}, {"measurement": "Percent Growth", "setting": "SN12C; log10 conc −6.9", "value": 88, "unit": "%"}, {"measurement": "Percent Growth", "setting": "SN12C; log10 conc −7.9", "value": 96, "unit": "%"}, {"measurement": "Percent Growth", "setting": "SN12C; log10 conc −8.9", "value": 97, "unit": "%"}, {"measurement": "TGI", "setting": "TX-10", "value": ">0.0126", "unit": "ng/mL"}, {"measurement": "Percent Growth", "setting": "TX-10; log10 conc −4.9", "value": 55, "unit": "%"}, {"measurement": "Percent Growth", "setting": "TX-10; log10 conc −5.9", "value": 96, "unit": "%"}, {"measurement": "Percent Growth", "setting": "TX-10; log10 conc −6.9", "value": 102, "unit": "%"}, {"measurement": "Percent Growth", "setting": "TX-10; log10 conc −7.9", "value": 96, "unit": "%"}, {"measurement": "Percent Growth", "setting": "TX-10; log10 conc −8.9", "value": 98, "unit": "%"}, {"measurement": "TGI", "setting": "RXE 393", "value": ">0.0126", "unit": "ng/mL"}, {"measurement": "Percent Growth", "setting": "RXE 393; log10 conc −4.9", "value": 7, "unit": "%"}, {"measurement": "Percent Growth", "setting": "RXE 393; log10 conc −5.9", "value": 67, "unit": "%"}, {"measurement": "Percent Growth", "setting": "RXE 393; log10 conc −6.9", "value": 109, "unit": "%"}, {"measurement": "Percent Growth", "setting": "RXE 393; log10 conc −7.9", "value": 74, "unit": "%"}, {"measurement": "Percent Growth", "setting": "RXE 393; log10 conc −8.9", "value": 23, "unit": "%"}, {"measurement": "TGI", "setting": "UO-31", "value": ">0.0126", "unit": "ng/mL"}, {"measurement": "Percent Growth", "setting": "UO-31; log10 conc −4.9", "value": 42, "unit": "%"}, {"measurement": "Percent Growth", "setting": "UO-31; log10 conc −5.9", "value": 103, "unit": "%"}, {"measurement": "Percent Growth", "setting": "UO-31; log10 conc −6.9", "value": 110, "unit": "%"}, {"measurement": "Percent Growth", "setting": "UO-31; log10 conc −7.9", "value": 108, "unit": "%"}, {"measurement": "Percent Growth", "setting": "UO-31; log10 conc −8.9", "value": 105, "unit": "%"}, {"measurement": "TGI", "setting": "CAKI-1 [3]", "value": "2.43E−06"}, {"measurement": "Mean Optical Densities", "setting": "CAKI-1 [3]; Log 10 Concentration −4.9", "value": 0.004}, {"measurement": "Percent Growth", "setting": "CAKI-1 [3]; Log 10 Concentration −4.9", "value": "−88", "unit": "%"}, {"measurement": "Mean Optical Densities", "setting": "CAKI-1 [3]; Log 10 Concentration −5.9", "value": 0.491}, {"measurement": "Percent Growth", "setting": "CAKI-1 [3]; Log 10 Concentration −5.9", "value": 35, "unit": "%"}, {"measurement": "Mean Optical Densities", "setting": "CAKI-1 [3]; Log 10 Concentration −6.9", "value": 1.573}, {"measurement": "Percent Growth", "setting": "CAKI-1 [3]; Log 10 Concentration −6.9", "value": 117, "unit": "%"}, {"measurement": "Mean Optical Densities", "setting": "CAKI-1 [3]; Log 10 Concentration −7.9", "value": 1.725}, {"measurement": "Percent Growth", "setting": "CAKI-1 [3]; Log 10 Concentration −7.9", "value": 128, "unit": "%"}, {"measurement": "Mean Optical Densities", "setting": "CAKI-1 [3]; Log 10 Concentration −8.9", "value": 1.254}, {"measurement": "Percent Growth", "setting": "CAKI-1 [3]; Log 10 Concentration −8.9", "value": 93, "unit": "%"}, {"measurement": "TGI", "setting": "A498 [4]", "value": "4.85E−06"}, {"measurement": "Mean Optical Densities", "setting": "A498 [4]; Log 10 Concentration −4.9", "value": 0.025}, {"measurement": "Percent Growth", "setting": "A498 [4]; Log 10 Concentration −4.9", "value": "−52", "unit": "%"}, {"measurement": "Mean Optical Densities", "setting": "A498 [4]; Log 10 Concentration −5.9", "value": 0.558}, {"measurement": "Percent Growth", "setting": "A498 [4]; Log 10 Concentration −5.9", "value": 73, "unit": "%"}, {"measurement": "Mean Optical Densities", "setting": "A498 [4]; Log 10 Concentration −6.9", "value": 0.837}, {"measurement": "Percent Growth", "setting": "A498 [4]; Log 10 Concentration −6.9", "value": 114, "unit": "%"}, {"measurement": "Mean Optical Densities", "setting": "A498 [4]; Log 10 Concentration −7.9", "value": 0.764}, {"measurement": "Percent Growth", "setting": "A498 [4]; Log 10 Concentration −7.9", "value": 103, "unit": "%"}, {"measurement": "Mean Optical Densities", "setting": "A498 [4]; Log 10 Concentration −8.9", "value": 0.826}, {"measurement": "Percent Growth", "setting": "A498 [4]; Log 10 Concentration −8.9", "value": 112, "unit": "%"}, {"measurement": "TGI", "setting": "TK-10", "value": ">1.26E−05"}, {"measurement": "Mean Optical Densities", "setting": "TK-10; Log 10 Concentration −4.9", "value": 0.239}, {"measurement": "Percent Growth", "setting": "TK-10; Log 10 Concentration −4.9", "value": 13, "unit": "%"}, {"measurement": "Mean Optical Densities", "setting": "TK-10; Log 10 Concentration −5.9", "value": 1.103}, {"measurement": "Percent Growth", "setting": "TK-10; Log 10 Concentration −5.9", "value": 82, "unit": "%"}, {"measurement": "Mean Optical Densities", "setting": "TK-10; Log 10 Concentration −6.9", "value": 1.334}, {"measurement": "Percent Growth", "setting": "TK-10; Log 10 Concentration −6.9", "value": 100, "unit": "%"}, {"measurement": "Mean Optical Densities", "setting": "TK-10; Log 10 Concentration −7.9", "value": 1.268}, {"measurement": "Percent Growth", "setting": "TK-10; Log 10 Concentration −7.9", "value": 95, "unit": "%"}, {"measurement": "Mean Optical Densities", "setting": "TK-10; Log 10 Concentration −8.9", "value": 1.356}, {"measurement": "Percent Growth", "setting": "TK-10; Log 10 Concentration −8.9", "value": 102, "unit": "%"}, {"measurement": "CC50", "setting": "TK-10; read-out: LC50 (the source's name)", "value": "> 12.6", "unit": "µM"}]}
